Source: the kinase profiling compilation of Christmann-Franck et al. (2016)

Columns and labels:
Test in all cases: radiometric filter-binding kinase assay
[1] = target: ABL1 (human) (UniProt P00519)
[2] = target: AURKB (human) (UniProt Q96GD4)
[3] = target: EIF2AK3 (human) (UniProt Q9NZJ5)
[4] = target: IRAK1 (human) (UniProt P51617)
[5] = system: OXSR1 (human), O95747 [T185E]
[6] = target: PHKG1 (human) (UniProt Q16816)
[7] = target: PRKCG (human) (UniProt P05129)
[8] = target: PTK6 (human) (UniProt Q13882)
[9] = target: STK16 (human) (UniProt O75716)
[10] = target: STK33 (human) (UniProt Q9BYT3)
[11] = target: TEK (human) (UniProt Q02763)
[12] = target: TESK1 (human) (UniProt Q15569)
[13] = target: TLK1 (human) (UniProt Q9UKI8)
[14] = target: TSSK1B (human) (UniProt Q9BXA7)
[15] = target: TTBK1 (human) (UniProt Q5TCY1)
[16] = target: ZAP70 (human) (UniProt P43403)
[17] = target: CDK9 CCNT1 (human) (UniProt P50750+O60563)
[18] = target: CSNK1G2 (human) (UniProt P78368)
[19] = target: DDR2 (human) (UniProt Q16832); conditions: compound 1.0 µM
[20] = target: SIK2 (human) (UniProt Q9H0K1)
[21] = target: SIK3 (human) (UniProt Q9Y2K2)
[22] = target: STK24 (human) (UniProt Q9Y6E0)
[23] = target: WNK1 (human) (UniProt Q9H4A3)

Chain of TSSK1B (human) (Q9BXA7 whole entry, looked up): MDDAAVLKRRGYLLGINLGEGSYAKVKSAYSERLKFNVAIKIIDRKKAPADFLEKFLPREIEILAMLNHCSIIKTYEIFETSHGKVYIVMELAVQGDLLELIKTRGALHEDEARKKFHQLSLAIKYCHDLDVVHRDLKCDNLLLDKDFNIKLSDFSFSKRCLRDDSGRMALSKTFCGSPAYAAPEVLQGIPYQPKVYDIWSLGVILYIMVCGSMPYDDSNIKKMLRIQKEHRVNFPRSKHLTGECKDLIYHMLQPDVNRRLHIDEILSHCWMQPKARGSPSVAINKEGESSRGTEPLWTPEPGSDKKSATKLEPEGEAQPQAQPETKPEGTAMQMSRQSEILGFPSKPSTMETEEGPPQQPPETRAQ
Chain of AURKB (human) (Q96GD4 whole entry, looked up): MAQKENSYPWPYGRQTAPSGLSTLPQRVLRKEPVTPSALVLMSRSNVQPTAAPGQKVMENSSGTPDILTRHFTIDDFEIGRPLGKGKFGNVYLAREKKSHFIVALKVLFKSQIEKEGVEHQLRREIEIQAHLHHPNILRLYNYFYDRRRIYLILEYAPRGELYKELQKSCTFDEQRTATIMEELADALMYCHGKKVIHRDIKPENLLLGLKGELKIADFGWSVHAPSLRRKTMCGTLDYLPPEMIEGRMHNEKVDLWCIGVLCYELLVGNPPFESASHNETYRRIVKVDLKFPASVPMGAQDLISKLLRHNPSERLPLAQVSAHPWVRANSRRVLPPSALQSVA
Chain of IRAK1 (human) (P51617 whole entry, looked up): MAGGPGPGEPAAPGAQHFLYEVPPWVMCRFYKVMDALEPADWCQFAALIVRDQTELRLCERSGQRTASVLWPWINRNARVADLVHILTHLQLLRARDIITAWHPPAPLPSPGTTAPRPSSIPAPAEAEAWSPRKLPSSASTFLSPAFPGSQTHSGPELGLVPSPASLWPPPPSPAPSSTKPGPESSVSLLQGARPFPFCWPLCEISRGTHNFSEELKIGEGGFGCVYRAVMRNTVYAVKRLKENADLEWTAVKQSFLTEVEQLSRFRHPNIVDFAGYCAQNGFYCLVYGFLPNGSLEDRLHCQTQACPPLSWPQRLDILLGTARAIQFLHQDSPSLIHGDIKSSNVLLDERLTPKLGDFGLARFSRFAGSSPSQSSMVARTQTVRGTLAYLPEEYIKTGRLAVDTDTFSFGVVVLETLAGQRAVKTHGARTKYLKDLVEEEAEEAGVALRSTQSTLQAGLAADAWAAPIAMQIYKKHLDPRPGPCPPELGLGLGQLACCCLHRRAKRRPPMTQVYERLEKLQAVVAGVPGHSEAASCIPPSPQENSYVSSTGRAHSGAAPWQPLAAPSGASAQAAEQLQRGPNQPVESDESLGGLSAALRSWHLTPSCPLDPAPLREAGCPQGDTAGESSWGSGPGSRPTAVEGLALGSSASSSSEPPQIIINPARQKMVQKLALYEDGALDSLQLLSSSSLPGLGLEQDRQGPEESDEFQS
Chain of EIF2AK3 (human) (Q9NZJ5 whole entry, looked up): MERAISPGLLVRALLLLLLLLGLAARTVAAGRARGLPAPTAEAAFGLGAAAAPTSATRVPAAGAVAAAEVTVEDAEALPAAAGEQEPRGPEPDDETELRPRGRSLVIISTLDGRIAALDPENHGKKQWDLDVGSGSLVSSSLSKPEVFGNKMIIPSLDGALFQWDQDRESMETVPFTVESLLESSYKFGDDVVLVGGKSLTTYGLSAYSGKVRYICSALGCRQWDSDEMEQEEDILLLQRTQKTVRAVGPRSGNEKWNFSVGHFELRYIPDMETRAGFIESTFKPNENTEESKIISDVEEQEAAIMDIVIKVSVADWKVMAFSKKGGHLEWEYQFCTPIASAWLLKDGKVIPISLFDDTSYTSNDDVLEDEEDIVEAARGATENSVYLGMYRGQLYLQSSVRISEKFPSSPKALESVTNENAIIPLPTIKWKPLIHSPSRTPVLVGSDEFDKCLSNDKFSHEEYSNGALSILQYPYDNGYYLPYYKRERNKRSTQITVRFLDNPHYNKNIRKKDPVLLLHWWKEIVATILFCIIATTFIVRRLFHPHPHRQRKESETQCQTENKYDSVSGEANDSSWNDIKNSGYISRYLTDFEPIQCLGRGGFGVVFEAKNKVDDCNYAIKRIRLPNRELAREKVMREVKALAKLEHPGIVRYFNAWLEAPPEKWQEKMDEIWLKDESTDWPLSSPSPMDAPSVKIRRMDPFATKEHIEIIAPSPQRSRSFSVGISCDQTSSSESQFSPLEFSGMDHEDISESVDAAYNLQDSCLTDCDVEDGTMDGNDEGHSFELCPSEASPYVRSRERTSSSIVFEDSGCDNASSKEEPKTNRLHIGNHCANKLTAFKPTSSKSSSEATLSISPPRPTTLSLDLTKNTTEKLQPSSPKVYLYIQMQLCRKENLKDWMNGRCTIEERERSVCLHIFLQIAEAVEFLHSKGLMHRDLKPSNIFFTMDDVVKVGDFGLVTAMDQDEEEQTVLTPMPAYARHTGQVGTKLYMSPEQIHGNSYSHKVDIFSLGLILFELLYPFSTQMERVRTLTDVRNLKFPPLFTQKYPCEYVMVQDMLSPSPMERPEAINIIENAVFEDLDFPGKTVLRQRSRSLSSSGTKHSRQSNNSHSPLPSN
Chain of TLK1 (human) (Q9UKI8 whole entry, looked up): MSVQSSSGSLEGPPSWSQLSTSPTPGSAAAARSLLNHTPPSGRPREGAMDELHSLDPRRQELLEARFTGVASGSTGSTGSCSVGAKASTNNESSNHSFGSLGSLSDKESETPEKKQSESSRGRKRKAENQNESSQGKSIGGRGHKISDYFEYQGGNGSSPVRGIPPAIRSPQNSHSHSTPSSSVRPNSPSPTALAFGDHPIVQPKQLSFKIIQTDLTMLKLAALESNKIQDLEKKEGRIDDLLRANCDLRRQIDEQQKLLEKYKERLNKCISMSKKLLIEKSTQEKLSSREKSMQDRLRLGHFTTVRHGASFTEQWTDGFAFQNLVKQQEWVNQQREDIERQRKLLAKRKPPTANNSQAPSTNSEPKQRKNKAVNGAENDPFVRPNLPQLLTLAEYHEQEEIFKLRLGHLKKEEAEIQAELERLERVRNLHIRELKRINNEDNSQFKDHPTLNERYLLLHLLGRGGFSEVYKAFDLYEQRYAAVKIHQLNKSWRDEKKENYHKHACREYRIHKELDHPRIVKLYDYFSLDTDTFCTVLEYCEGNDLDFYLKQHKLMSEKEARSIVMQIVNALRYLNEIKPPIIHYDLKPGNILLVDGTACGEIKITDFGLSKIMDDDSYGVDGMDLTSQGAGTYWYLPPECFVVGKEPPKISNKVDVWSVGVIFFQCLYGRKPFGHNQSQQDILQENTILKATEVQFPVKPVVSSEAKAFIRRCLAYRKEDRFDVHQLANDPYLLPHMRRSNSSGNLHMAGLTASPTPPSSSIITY
Chain of ZAP70 (human) (P43403 whole entry, looked up): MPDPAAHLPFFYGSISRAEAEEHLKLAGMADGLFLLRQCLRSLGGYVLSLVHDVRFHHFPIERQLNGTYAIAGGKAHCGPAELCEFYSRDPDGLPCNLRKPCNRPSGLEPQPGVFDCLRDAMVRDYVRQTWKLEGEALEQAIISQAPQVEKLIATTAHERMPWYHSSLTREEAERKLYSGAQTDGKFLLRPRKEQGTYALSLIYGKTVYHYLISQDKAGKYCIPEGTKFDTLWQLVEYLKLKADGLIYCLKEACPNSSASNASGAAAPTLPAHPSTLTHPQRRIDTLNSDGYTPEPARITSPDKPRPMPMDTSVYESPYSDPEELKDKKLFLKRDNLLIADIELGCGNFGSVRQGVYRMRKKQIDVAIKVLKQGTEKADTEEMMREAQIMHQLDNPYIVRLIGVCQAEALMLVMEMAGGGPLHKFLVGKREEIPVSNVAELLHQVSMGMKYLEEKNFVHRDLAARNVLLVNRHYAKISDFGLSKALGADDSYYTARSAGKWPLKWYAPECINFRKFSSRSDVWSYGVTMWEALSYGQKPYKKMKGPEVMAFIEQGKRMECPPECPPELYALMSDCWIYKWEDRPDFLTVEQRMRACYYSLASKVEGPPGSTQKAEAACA
Chain of STK16 (human) (O75716 whole entry, looked up): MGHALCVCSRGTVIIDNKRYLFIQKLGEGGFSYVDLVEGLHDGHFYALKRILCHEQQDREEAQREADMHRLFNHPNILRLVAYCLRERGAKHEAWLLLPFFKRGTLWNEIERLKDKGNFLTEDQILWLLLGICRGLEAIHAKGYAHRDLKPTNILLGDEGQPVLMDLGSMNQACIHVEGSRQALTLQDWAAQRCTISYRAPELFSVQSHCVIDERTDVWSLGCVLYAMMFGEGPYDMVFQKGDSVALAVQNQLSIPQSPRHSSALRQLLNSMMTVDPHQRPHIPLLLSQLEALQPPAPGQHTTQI

With CC(C)(C#N)c1ccc(N2C(=O)OCc3cnc4ccc(-c5cnc6ccccc6c5)cc4c32)cc1 the residual activity ([1]; compound 1.0 µM) was 93%, the residual activity ([1]; compound 10.0 µM) was 103% and the residual activity ([2]; compound 1.0 µM) was 93%. The residual activity ([2]; compound 10.0 µM) was 82%, the residual activity ([3]; compound 1.0 µM) was 101% and the residual activity ([3]; compound 10.0 µM) was 97%. For the same molecule, the residual activity ([4]; compound 1.0 µM) was 79%, the residual activity ([4]; compound 10.0 µM) was 56% and the residual activity ([5]; compound 1.0 µM) was 102%. The residual activity ([5]; compound 10.0 µM) was 103%, the residual activity ([6]; compound 1.0 µM) was 97% and the residual activity ([6]; compound 10.0 µM) was 92%. The residual activity ([7]; compound 1.0 µM) was 111%, the residual activity ([7]; compound 10.0 µM) was 99% and the residual activity ([8]; compound 1.0 µM) was 96%. It also gave a residual activity ([8]; compound 10.0 µM) of 97%, a residual activity ([9]; compound 1.0 µM) of 87% and a residual activity ([9]; compound 10.0 µM) of 100%. For the same molecule, the residual activity ([10]; compound 10.0 µM) was 98%, the residual activity ([11]; compound 1.0 µM) was 93% and the residual activity ([11]; compound 10.0 µM) was 95%. For the same molecule, the residual activity ([12]; compound 1.0 µM) was 116%, the residual activity ([12]; compound 10.0 µM) was 108% and the residual activity ([13]; compound 1.0 µM) was 84%. For the same molecule, the residual activity ([13]; compound 10.0 µM) was 101%, the residual activity ([14]; compound 10.0 µM) was 103% and the residual activity ([15]; compound 1.0 µM) was 110%. For the same molecule, the residual activity ([15]; compound 10.0 µM) was 100%, the residual activity ([16]; compound 1.0 µM) was 75% and the residual activity ([16]; compound 10.0 µM) was 77%.
For CNc1nc(-c2ccc3c(N)n[nH]c3c2)cc(N2C[C@@H](C(=O)NC3CCCCC3)CC[C@H]2C)n1, the residual activity ([1]; compound 1.0 µM) was 116%, the residual activity ([1]; compound 10.0 µM) was 100% and the residual activity ([2]; compound 0.01 µM) was 105%. It also gave a residual activity ([2]; compound 0.1 µM) of 106%, a residual activity ([2]; compound 1.0 µM) of 72% and a residual activity ([2]; compound 10.0 µM) of 29%. It also gave a residual activity ([17]; compound 1.0 µM) of 92%, a residual activity ([17]; compound 10.0 µM) of 100% and a residual activity ([18]; compound 1.0 µM) of 101%. It also gave a residual activity ([18]; compound 10.0 µM) of 97%, a residual activity [19] of 107% and a residual activity ([3]; compound 1.0 µM) of 100%. The residual activity ([3]; compound 10.0 µM) was 100%, the residual activity ([4]; compound 1.0 µM) was 105% and the residual activity ([4]; compound 10.0 µM) was 106%. It also gave a residual activity ([5]; compound 1.0 µM) of 112%, a residual activity ([5]; compound 10.0 µM) of 103% and a residual activity ([6]; compound 0.01 µM) of 106%. For the same molecule, the residual activity ([6]; compound 0.1 µM) was 108%, the residual activity ([6]; compound 1.0 µM) was 101% and the residual activity ([6]; compound 10.0 µM) was 78%. The residual activity ([7]; compound 10.0 µM) was 87%, the residual activity ([8]; compound 1.0 µM) was 127% and the residual activity ([8]; compound 10.0 µM) was 116%. It also gave a residual activity ([20]; compound 1.0 µM) of 106%, a residual activity ([20]; compound 10.0 µM) of 78% and a residual activity ([21]; compound 1.0 µM) of 76%. The residual activity ([21]; compound 10.0 µM) was 58%, the residual activity ([9]; compound 1.0 µM) was 105% and the residual activity ([9]; compound 10.0 µM) was 104%. The residual activity ([22]; compound 1.0 µM) was 110%, the residual activity ([22]; compound 10.0 µM) was 110% and the residual activity ([10]; compound 1.0 µM) was 89%. For the same molecule, the residual activity ([10]; compound 10.0 µM) was 43%, the residual activity ([11]; compound 1.0 µM) was 105% and the residual activity ([11]; compound 10.0 µM) was 76%. It also gave a residual activity ([12]; compound 1.0 µM) of 91%, a residual activity ([12]; compound 10.0 µM) of 101% and a residual activity ([13]; compound 1.0 µM) of 101%. It also gave a residual activity ([13]; compound 10.0 µM) of 115%, a residual activity ([14]; compound 1.0 µM) of 88% and a residual activity ([14]; compound 10.0 µM) of 64%. The residual activity ([15]; compound 1.0 µM) was 112%, the residual activity ([15]; compound 10.0 µM) was 99% and the residual activity ([23]; compound 1.0 µM) was 109%. For the same molecule, the residual activity ([23]; compound 10.0 µM) was 104% and the residual activity ([16]; compound 1.0 µM) was 98%.
